Assay results as given in patent publication US20250388605A1, “HETEROBIFUNCTIONAL COMPOUNDS AND METHODS OF TREATING DISEASE” (Halda Therapeutics OpCo, Inc., priority 2022, published 2025).
pKd: −log10 of the molar value.

What was measured:
[1] = system: T-Rex 293 cell line SC3 cells lacking increased expression of androgen receptor protein; test: Cellular growth inhibition, T-Rex 293 SC3 cells without doxycycline (no increased androgen receptor expression), CellTiter-Glo; type: cell-based; settings: T-Rex 293 SC3 cells not exposed to doxycycline (no increased androgen receptor expression), 72 hours
In short: (§1)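 Doxycycline (10 ng/mL) was either included or omitted to toggle wild-type androgen receptor expression in SC3 cells, a T-Rex 293 clone, grown in stripped-serum, phenol red-free medium. After 72 hours with compound, viable cells were quantified by CellTiter-Glo 2.0.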

[2] = molecular target: T1, BRD4-BD1 (Homo sapiens, UniProt O60885); test: Binding affinity to BRD4-BD1 (bromoKdELECT assay); settings: 11-point 3-fold dilution series
T1 construct: made in house; host or cells: T7 phage grown in an E. coli host derived from the BL21 strain
Method: (§2) Compounds were tested using a bromoKdELECT assay. T7 phage strains displaying bromodomains were grown in parallel in 24-well blocks in an E. coli host derived from the BL21 strain. E. coli were grown to log-phase and infected with T7 phage from a frozen stock (multiplicity of infection=0.4) and incubated with shaking at 32° C. until lysis (90-150 minutes). The lysates were centrifuged (5,000×g) and filtered ([…]) to remove cell debris. Streptavidin-coated magnetic beads were treated with biotinylated small molecule or acetylated peptide ligands for 30 minutes at room temperature to generate affinity resins for bromodomain assays. The liganded beads were blocked with excess biotin and washed with blocking buffer (SeaBlock (Pierce), 1% BSA, 0.05% Tween 20, 1 mM DTT) to remove unbound ligand and to reduce nonspecific phage binding. Binding reactions were assembled by combining bromodomains, liganded affinity beads, and test compounds in 1× binding buffer (17% SeaBlock, 0.33×PBS, 0.04% Tween 20, 0.02% BSA, 0.004% Sodium azide, 7.4 mM DTT). Test compounds were prepared as 1000× stocks in 100% DMSO. Kds were determined using an 11-point 3-fold compound dilution series with one DMSO control point. All compounds for Kd measurements are distributed by acoustic transfer (non-contact dispensing) in 100% DMSO. The compounds were then diluted directly into the assays such that the final concentration of DMSO was 0.09%. All reactions performed in polypropylene 384-well plates. Each was a final volume of 0.02 ml. The assay plates were incubated at room temperature with shaking for 1 hour and the affinity beads were washed with wash buffer (1×PBS, 0.05% Tween 20). The beads were then resuspended in elution buffer (1×PBS, 0.05% Tween 20, 2 M non-biotinylated affinity ligand) and incubated at room temperature with shaking for 30 minutes. The bromodomain concentration in the eluates was measured by qPCR.

[3] = system: T-Rex 293 cell line SC3 cells having increased expression of androgen receptor protein due to exposure to doxycycline; test: Cellular growth inhibition, T-Rex 293 SC3 cells with doxycycline (increased androgen receptor expression), CellTiter-Glo; type: cell-based; settings: T-Rex 293 SC3 cells with 10 ng/mL doxycycline (increased androgen receptor expression), 72 hours, CellTiter-Glo 2.0
In short: as §1

[4] = molecular target: T2, BRD4-BD2 (Homo sapiens, UniProt O60885); test: Binding affinity to BRD4-BD2 (bromoKdELECT assay); settings: 11-point 3-fold dilution series
T2 construct: made in house; host or cells: T7 phage grown in an E. coli host derived from the BL21 strain
Method: as §2, with “2 μM” for “2 M”

[5] = system: VCaP cells; test: Cellular growth inhibition assay for VCaP cells, CellTiter-Glo; type: cell-based, human; settings: 72 hours
In short: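 GI50 values come from four-parameter curve fits of luminescence data normalized to a zero baseline. Compound, in medium with 0.5% DMSO, was added one day after plating and left for 72 h before CellTiter-Glo 2.0 addition.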

[6] = system: T47D cells; test: Cellular Growth Inhibition Assay for T47D Cells (CellTiter-Glo); type: cell-based, human; settings: 72 hours
In short: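 GI50 values derive from four-parameter regression of CellTiter-Glo 2.0 luminescence, using zero luminescence as baseline. Human breast cancer T47D cells (3000/well; DMEM, 10% FBS, 0.2 units/mL insulin) were exposed for 72 h to compound dilutions at 0.5% DMSO, with dosing starting 24 h after seeding.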

| Structure (SMILES) | GI50 [1] [nM] | pKd [2] | GI50 [3] [nM] | pKd [4] | GI50 ([5]; Homo sapiens) [nM] | GI50 [5] [nM] | GI50 ([6]; Homo sapiens) [nM] | GI50 [6] [nM] |
| --- | --- | --- | --- | --- | --- | --- | --- | --- |
| Cn1cc(-c2cc(NS(=O)(=O)C3CC3)ccc2Oc2cccc(OCCOC3CCN(c4ncc(C(=O)N[C@H]5C(C)(C)[C@H](Oc6ccc(C#N)c(Cl)c6)C5(C)C)cn4)CC3)c2)c2cc[nH]c2c1=O [Compound I-48, N-((1r, 3r)-3-(3-chloro-4-cyanophenoxy)-2,2,4,4-tetramethylcyclobutyl)-2-(4-(2-(3-(4-(cyclopropanesulfonamido)-2-(6-methyl-7-oxo-6,7-dihydro-1H-pyrrolo[2,3-c]pyridin-4-yl)phenoxy)phenoxy)ethoxy)piperidin-1-yl)pyrimidine-5-carboxamide] | > 3000 | < 5.60 | < 500 | 5.60 to 6.30 | < 500 | – | – | – |
| CCS(=O)(=O)Nc1ccc(Oc2cccc(OCCCN3CCN(CCCOC4CCN(c5ncc(C(=O)N[C@H]6C(C)(C)[C@H](Oc7ccc(C#N)c(Cl)c7)C6(C)C)cn5)CC4)CC3)c2)c(-c2cn(C)c(=O)c3[nH]ccc23)c1 [Compound I-10] | < 500 | 6.30 to 7.30 | < 500 | > 7.30 | < 500 | – | – | – |
| CCS(=O)(=O)Nc1ccc(Oc2cccc(OCCOCCOCCOCCOCCOCCOCCOC3CCN(c4ncc(C(=O)N[C@H]5C(C)(C)[C@H](Oc6ccc(C#N)c(Cl)c6)C5(C)C)cn4)CC3)c2)c(-c2cn(C)c(=O)c3[nH]ccc23)c1 [Compound I-9] | 500 to 1500 | 6.30 to 7.30 | < 500 | > 7.30 | < 500 | – | – | – |
| CCS(=O)(=O)Cc1ccc(Oc2cccc(OCCC3CCN(c4ncc(C(=O)N[C@H]5C(C)(C)[C@H](Oc6ccc(C#N)c(Cl)c6)C5(C)C)cn4)CC3)c2)c(-c2cn(C)c(=O)c3[nH]ccc23)c1 [Compound I-109] | < 500 | < 5.60 | < 500 | 5.60 to 6.30 | – | < 500 | – | – |
| CCS(=O)(=O)Cc1ccc(Oc2cccc(OCCN3CCN(c4ncc(C(=O)N[C@H]5C(C)(C)[C@H](Oc6ccc(C#N)c(Cl)c6)C5(C)C)cn4)CC3)c2)c(-c2cn(C)c(=O)c3[nH]ccc23)c1 [Compound I-106] | < 500 | 6.30 to 7.30 | < 500 | > 7.30 | – | < 500 | – | – |
| CCS(=O)(=O)Nc1ccc(Oc2ccc(CCOC3CCN(c4ncc(C(=O)N[C@H]5C(C)(C)[C@H](Oc6ccc(C#N)c(Cl)c6)C5(C)C)cn4)CC3)cc2)c(-c2cn(C)c(=O)c3[nH]ccc23)c1 [Compound I-151] | < 500 | 6.30 to 7.30 | < 500 | > 7.30 | < 500 | – | – | – |
| CCS(=O)(=O)N(C)c1ccc(Oc2cccc(OCCOC3CCN(c4ncc(C(=O)N[C@H]5C(C)(C)[C@H](Oc6ccc(C#N)c(Cl)c6)C5(C)C)cn4)CC3)c2)c(-c2cn(C)c(=O)c3[nH]ccc23)c1 [Compound I-52] | < 500 | < 5.60 | < 500 | 5.60 to 6.30 | < 500 | – | – | – |
| CCS(=O)(=O)Nc1ccc(OC(COCCOC2CCN(c3ncc(C(=O)N[C@H]4C(C)(C)[C@H](Oc5ccc(C#N)c(Cl)c5)C4(C)C)cn3)CC2)C2CC2)c(-c2cn(C)c(=O)c3[nH]ccc23)c1 (stereo partly shown) [Compound I-67] | < 500 | 6.30 to 7.30 | < 500 | 6.30 to 7.30 | < 500 | – | – | – |
| CCS(=O)(=O)Nc1ccc(Oc2cccc(OCCCN3CCN(CCCN(C)c4ncc(C(=O)N[C@H]5C(C)(C)[C@H](Oc6ccc(C#N)c(Cl)c6)C5(C)C)cn4)CC3)c2)c(-c2cn(C)c(=O)c3[nH]ccc23)c1 [Compound I-5] | 500 to 1500 | 6.30 to 7.30 | < 500 | > 7.30 | – | – | – | – |
| CCS(=O)(=O)c1ccc(Oc2ccc(OC3CC4(CCN(c5ncc(C(=O)N[C@H]6C(C)(C)[C@H](Oc7ccc(C#N)c(Cl)c7)C6(C)C)cn5)CC4)C3)c(F)c2)c(-c2cn(C)c(=O)c3[nH]ccc23)c1 [Compound I-283] | > 3000 | – | < 500 | – | < 500 | – | < 500 | – |
| Cn1cc(-c2ccccc2Oc2cccc(CCOC3CCN(c4ncc(C(=O)N[C@H]5C(C)(C)[C@H](Oc6ccc(C#N)c(Cl)c6)C5(C)C)cn4)CC3)c2)c2cc[nH]c2c1=O [Compound I-146] | > 3000 | – | < 500 | – | – | < 500 | – | < 500 |
